These results are taken from patent publication US8778951B2, “Heteroaryl compounds and their uses” (Novartis AG, priority 2009, dated 2014).

Cdk9/cyclinT1, sequence (P50750 whole entry): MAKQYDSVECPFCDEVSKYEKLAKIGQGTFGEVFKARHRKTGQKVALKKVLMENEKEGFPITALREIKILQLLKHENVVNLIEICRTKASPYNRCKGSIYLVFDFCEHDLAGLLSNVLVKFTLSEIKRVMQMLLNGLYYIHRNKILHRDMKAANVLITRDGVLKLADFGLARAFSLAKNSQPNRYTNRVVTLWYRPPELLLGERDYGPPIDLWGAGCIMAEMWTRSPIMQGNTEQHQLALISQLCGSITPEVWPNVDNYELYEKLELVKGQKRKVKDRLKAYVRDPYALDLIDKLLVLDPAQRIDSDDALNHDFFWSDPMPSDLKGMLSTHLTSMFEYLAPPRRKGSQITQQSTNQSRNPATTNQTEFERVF
Cdk9/cyclinT1, sequence (O60563 whole entry partner): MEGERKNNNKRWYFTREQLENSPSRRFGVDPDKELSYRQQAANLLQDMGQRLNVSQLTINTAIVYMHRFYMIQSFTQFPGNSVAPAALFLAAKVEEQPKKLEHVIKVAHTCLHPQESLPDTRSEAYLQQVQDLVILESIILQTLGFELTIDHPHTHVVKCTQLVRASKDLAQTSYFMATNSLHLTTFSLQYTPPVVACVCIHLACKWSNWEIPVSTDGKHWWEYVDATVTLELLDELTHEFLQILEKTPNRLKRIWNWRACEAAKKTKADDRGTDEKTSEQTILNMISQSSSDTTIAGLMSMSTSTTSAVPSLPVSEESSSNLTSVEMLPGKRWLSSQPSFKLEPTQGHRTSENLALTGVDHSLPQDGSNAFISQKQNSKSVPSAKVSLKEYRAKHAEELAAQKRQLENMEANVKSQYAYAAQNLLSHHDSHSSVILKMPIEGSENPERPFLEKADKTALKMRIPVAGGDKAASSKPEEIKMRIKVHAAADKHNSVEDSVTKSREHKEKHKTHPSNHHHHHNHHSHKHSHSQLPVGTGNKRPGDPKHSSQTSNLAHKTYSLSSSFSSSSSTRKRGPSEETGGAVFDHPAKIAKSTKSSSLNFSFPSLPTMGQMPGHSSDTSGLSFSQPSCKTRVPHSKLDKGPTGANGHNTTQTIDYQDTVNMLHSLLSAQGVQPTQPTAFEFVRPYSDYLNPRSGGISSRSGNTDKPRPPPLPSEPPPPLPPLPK

The first test relates to neointima formation.
Assay: not given
The note with it: rats; cited from earlier work.
As for `COc1ccc(CNc2nc(N(CCO)CCO)nc3c2ncn3C(C)C)cc1` [CVT-313], the “inhibition of neointima formation” value is given as “greater than 80%”.

A further test concerns the target Cdk9/cyclinT1 (Homo sapiens (Human), UniProt P50750). Put plainly: Cdk9/CyclinT1 IMAP Protocol (fluorescence polarization kinase assay). It counts as biochemical. The settings on record: Table 2; generated using one of the two Cdk9/cyclinT1 assays (IMAP or Alpha Screen), not specified which; unit inferred. Put shortly:
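Reaction used 4 nM Cdk9/cyclinT1, 100 nM 5TAMRA-cdk7tide peptide and 6 uM ATP in 100 mM Tris pH 7.2 with MgCl2, 0.01% Tween-20, 1 mM DTT and 2.5% DMSO, running 4.5 h. Phosphopeptide was captured by IMAP binding reagent for >1 h, then read by fluorescence polarization (ex 531/em 595 nm).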
As for `COC[C@@H](C)N[C@H]1CC[C@H](Nc2cc(-c3cccc(NCC4(CO)CCOCC4)n3)c(Cl)cn2)CC1` [Compound 349, (4-((5′-chloro-2′-(trans-4-((R)-1-methoxypropan-2-ylamino)cyclohexylamino)-2,4′-bipyridin-6-ylamino)methyl)tetrahydro-2H-pyran-4-yl)methanol], the IC50 worked out at 1 nM.

Compound `COC[C@@H](C)N[C@H]1CC[C@H](Nc2cc(-c3cccc(NCC4(C#N)CCOCC4)n3)c(Cl)cn2)CC1` [Compound 358, 4-((5′-chloro-2′-((1R,4r)-4-((R)-1-methoxypropan-2-ylamino)cyclohexylamino)-2,4′-bipyridin-6-ylamino)methyl)tetrahydro-2H-pyran-4-carbonitrile] displayed an IC50 of 0.17 nM.

In the case of `N#CC1(CNc2cccc(-c3cc(N[C@H]4CC[C@H](O)CC4)ncc3Cl)n2)CCOCC1` [Compound 359, 4-((5′-chloro-2′-((1r,4r)-4-hydroxycyclohexylamino)-2,4′-bipyridin-6-ylamino)methyl)tetrahydro-2H-pyran-4-carbonitrile], the midpoint of inhibition, the IC50, lay at 0.24 nM.

In turn, `CCN[C@H]1CC[C@H](Nc2cc(-c3cccc(NCC4(C#N)CCOCC4)n3)c(Cl)cn2)CC1` [Compound 360, 4-((5′-chloro-2′-((1r,4r)-4-(ethylamino)cyclohexylamino)-2,4′-bipyridin-6-ylamino)methyl)tetrahydro-2H-pyran-4-carbonitrile] gave an IC50 of 0.28 nM.

`CN(C)[C@H]1CC[C@H](Nc2cc(-c3cccc(NCC4(C#N)CCOCC4)n3)c(Cl)cn2)CC1` [Compound 361, 4-((5′-chloro-2′-((1r,4r)-4-(dimethylamino)cyclohexylamino)-2,4′-bipyridin-6-ylamino)methyl)tetrahydro-2H-pyran-4-carbonitrile] returned an IC50 of 0.3 nM.

Compound `COC[C@@H](C)N[C@H]1CC[C@H](Nc2cc(-c3cccc(NCC4(C)CCS(=O)(=O)CC4)n3)c(Cl)cn2)CC1` [Compound 365] yielded an IC50 of 0.7 nM.

`CCN(CC)[C@H]1CC[C@H](Nc2cc(-c3cccc(NCC4(C#N)CCOCC4)n3)c(Cl)cn2)CC1` [Compound 366, 4-((5′-chloro-2′-((1r,4r)-4-(diethylamino)cyclohexylamino)-2,4′-bipyridin-6-ylamino)methyl)tetrahydro-2H-pyran-4-carbonitrile] displayed an IC50 of 1 nM.

Take `COC[C@@H](C)N[C@H]1CC[C@H](Nc2cc(-c3ccc(F)c(NCC(CO)CO)n3)c(Cl)cn2)CC1` [Compound 367, 2-((5′-chloro-5-fluoro-2′-((1R,4r)-4-((R)-1-methoxypropan-2-ylamino)cyclohexylamino)-2,4′-bipyridin-6-ylamino)methyl)propane-1,3-diol]: the IC50 was 3.1 nM. This IC50 is about 3.1-fold higher than that of the compound before.

For “(S)-3-(trans-4-(3,5′-dichloro-6-((tetrahydro-2H-pyran-4-yl)methyl)amino-2,4′-bipyridin-2′-yl-amino)cyclohexylamino)-1,1,1-trifluoropropan-2-ol [Compound 289]”, the IC50 amounted to 4 nM.
